Where no end group is shown, it is not given here.
What was measured:
Type in all cases: cell-based
HaCaT keratinocytes = assay: SRB colorimetric assay, growth of HaCaT keratinocytes; settings: 10 ng/ml or 1,000 ng/ml, 72 hr, serum-free medium, absorbance at 590 nm, FIG. 3a
Protocol: (§1) In order to evaluate four peptides prepared in Preparation Examples 1-2 whether they have similar activities of growth factor-1, SRB (Sulforhodamine B; Sigma-Aldrich) colorimetric assay was carried out using HaCaT keratinocytes and NIH3T3 fibroblasts according to Rizzino et al. method (Rizzino, et al. Cancer Res., 48: 4266 (1988)).
(§2) HaCaT keratinocytes (The Korean Cell Line Bank) and NIH3T3 fibroblasts (The Korean Cell Line Bank) were cultured in 250 ml-flasks containing EMEM (Eagle's minimal essential media; Gibco, U.S.A.) supplemented with 10% FBS (fetal bovine serum). Cells cultured were treated with 0.25% trypsin solution to detach cells from the bottom of culture flasks and centrifuged to collect cell pellets. After cells were resuspended in EMEM not containing FBS, its aliquot (4×10^3 cells)was added to each well of 96-well plates and cultured under 7% CO2 for 24 hr at 37° C. After 24-hr culture, the medium was changed with a fresh medium not containing serum and cells were incubated with human aFGF (NIBSC, UK) or four peptides synthesized (10 ng/ml or 1,000 ng/ml) dissolved in water and 10% DMSO for 72 hr under the same conditions as described above. After removing supernatants, cells were washed once using PBS (phosphate buffered saline) and incubated with SRB solution. Cells were sufficiently washed with PBS and observed under a microscope to find cell viability. In addition, absorbance at 590 nm was measured to analyze cell proliferation.
FIG. 3a and FIG. 3b represent the analysis data for growth of keratinocytes and fibroblasts, respectively. FIG. 4 represents the growth pattern of keratinocytes and fibroblasts observed under microscope after 72 hr-treatment with peptides.

NIH3T3 fibroblasts = assay: SRB colorimetric assay, growth of NIH3T3 fibroblasts; settings: NIH3T3, 10 ng/ml or 1,000 ng/ml, 72 hr, serum-free medium, absorbance at 590 nm, FIG. 3b
Protocol: as §1
as §2, with “Cells were sufficiently washed with PBS and observed under a microscope to find cell viability.” left out, “proliferation. […]” for “proliferation.”

fibronectin = assay: Fibronectin ELISA in HaCaT keratinocytes; settings: HaCaT incubated with peptides for 72 hr, FIG. 5b
Protocol: (§3) HaCaT keratinocytes cultured for 48 hr were incubated with the peptides of the present invention for 72 hr. The levels of procollagen and fibronectin, indicators to show the improvement in skin wrinkle, were examined. The quantification was performed using Procollagen ELISA kit (Takara, Japan) and Fibronectin ELISA kit (CHEMICON, USA).

procollagen = assay: Procollagen ELISA in HaCaT keratinocytes; settings: HaCaT incubated with peptides for 72 hr, FIG. 5a
Protocol: as §3

Substance	growth of keratinocytes (HaCaT keratinocytes)	growth of fibroblasts (NIH3T3 fibroblasts)	level of fibronectin in keratinocytes (fibronectin)	level of procollagen in keratinocytes (procollagen)
Ac-YKSKKGGWTH [peptide 1]	much better effects on growth of keratinocytes	excellent effects on growth of fibroblasts	strikingly facilitate the production of procollagen	–
GYVGVRCEAADLDA [compound 4, corresponds to amino acids 38-49 of TGF-α]	much better effects on growth of keratinocytes	–	strikingly facilitate the production of procollagen	–
DSHTQYCFHGT [compound 3, corresponds to amino acids 10-20 of TGF-α]	much better effects on growth of keratinocytes	–	–	–
YISKKHAGKNWF [corresponds to amino acids 111-122 of aFGF]	–	excellent effects on growth of fibroblasts	–	remarkably promote the production of procollagen

— patent publication US8501689B2, “Growth factor-mimicking peptides and uses thereof” (Caragen Co., Ltd., priority 2008, dated 2013)
